The values below come from ChEMBL document CHEMBL1145626, “Novel echinocandin antifungals. Part 2: Optimization of the side chain of the natural product FR901379. Discovery of micafungin” (Bioorg Med Chem Lett, 2008).

Series [1] can be described thus: Concentration in mouse plasma at 5 mg/kg, iv after 30 mins. The format is ADME, organism-based. Also on record: dose 5 mg/kg, route intravenous.
For series [2], the system named is Aspergillus fumigatus. Put plainly: Antifungal activity against Aspergillus fumigatus FP1305 in mouse serum. The format is functional.
Series [3] has as its system Candida albicans. As to the kind of experiment: Antifungal activity against Candida albicans FP633 in mouse serum. In kind it is functional.
Series [4] is described as follows: Half life in mouse at 5 mg/kg, iv after 30 mins. The arrangement: dose 5 mg/kg, route intravenous. The following applies: in vivo. In kind it is ADME, organism-based.
In series [5] the test system is Candida albicans. Put plainly: Antifungal activity against Candida albicans FP633 in RPMI media. In kind it is functional.
Series [6] is described as follows: Hemolytic activity in human erythrocytes at 1 mg/ml. In kind it is ADME, cell-based, Erythrocyte. The following applies: read-out: Activity.
Series [7] is described as follows: AUC (0 to infinity) in mouse at 5 mg/kg, iv after 30 mins. Also on record: time infinity, dose 5 mg/kg, route intravenous. The note with it: plasma. In kind it is ADME, organism-based.
The subject of series [8] is Aspergillus fumigatus. Put plainly: Antifungal activity against Aspergillus fumigatus FP1305 infected in mouse.
Series [9] has as its system Aspergillus fumigatus. As to the kind of experiment: Antifungal activity against Aspergillus fumigatus FP1305 in RPMI media. The format is functional.
Series [10] deals with Candida albicans. Put plainly: Antifungal activity against Candida albicans FP633 infected in mouse. The format is functional.

*1 amine or outer side, *2 acyl side, *3 side chain or, on linkers, in order; H or OH if unused. Where a SMILES comes first, the peptide text is derived from it. Bridges are numbered along the chain shown (N, C = ends). [ ]: non-standard residue; d: D form. The star is where a group is joined. ξ: configuration not given here. hTyr(3S-OH,4S-OH,3'-OSO3H) = N[C@H](C(=O)O)[C@H](O)[C@@H](O)c1ccc(O)c(OS(=O)(=O)O)c1; Orn(4R-OH,5R-OH) = O=C([C@H](C[C@@H](O)[C@@H](O)N[*:3])N[*:1])[*:2]; Orn(4R-OH,5S-OH) = O=C([C@H](C[C@@H](O)[C@H](O)N[*:3])N[*:1])[*:2]; X4 = CCCCCCOc1ccc(-c2nnc(-c3ccc(C(=O)*)cc3)s2)cc1; X6 = CCCCCCCOc1ccc(N2CCN(c3ccc(C(=O)*)cn3)CC2)cc1; Pro(3S-OH,4S-Me) = C[C@H]1CN[C@H](C(=O)O)[C@H]1O; X1 = CCCCCCOc1ccc(N2CCN(c3ccc(C(=O)*)cc3)CC2)cc1; X2 = CCCCCOc1ccc(-c2cc(-c3ccc(C(=O)*)cc3)no2)cc1; X3 = CCCCOc1ccc(-c2ccc(-c3ccc(C(=O)*)cc3)cc2)cc1; X5 = CCCCCOc1ccc(-c2cc(-c3ccc(C(=O)*)cc3)on2)cc1; X7 = CCCCCCOc1ccc(C2CCN(c3ccc(C(=O)*)cc3)CC2)cc1; X8 = CCCCCOc1ccc(-c2nc(-c3ccc(C(=O)*)cc3)cs2)cc1; Benzoyl(4-octyloxy) = CCCCCCCCOc1ccc(C(=O)*)cc1; Gln(3R-OH) = NC(=O)C[C@@H](O)[C@H](N)C(=O)O; Hyp = O=C(O)[C@@H]1C[C@@H](O)CN1; ξThr(3R) = C[C@@H](O)C(N)C(=O)O

In turn, `CCCCCCOc1ccc(N2CCN(c3ccc(C(=O)N[C@H]4C[C@@H](O)[C@@H](O)NC(=O)[C@@H]5[C@@H](O)[C@@H](C)CN5C(=O)[C@H]([C@H](O)CC(N)=O)NC(=O)[C@H]([C@H](O)[C@@H](O)c5ccc(O)c(OS(=O)(=O)[O-])c5)NC(=O)[C@@H]5C[C@@H](O)CN5C(=O)C([C@@H](C)O)NC4=O)cc3)CC2)cc1.[Na+]` (stereo partly drawn) (X1-[Orn(4R-OH,5R-OH)][ξThr(3R)][Hyp][hTyr(3S-OH,4S-OH,3'-OSO3H)][Gln(3R-OH)][Pro(3S-OH,4S-Me)]; lactam 1-C) registered a concentration at 0.5 h in series [1] of 18800 ng/mL. In addition, the MIC against Aspergillus fumigatus [2] was found to be 1.56 µg/mL; with Candida albicans [3], 3.13 µg/mL; in the series on Candida albicans [5], 0.1 µg/mL. In series [4], this compound showed a half-life of 3.5 h. Also, the hemolysis at 1 mg/ml in series [6] is less than 20%. The compound also showed an AUC(0-inf) in [7] of 105 µg·h/mL. The figures for the median effective dose (ED50) in the series with Aspergillus fumigatus [8] and in the series on Candida albicans [10] were 0.531 mg/kg and 0.395 mg/kg, respectively. Further, the half-inhibitory concentration (IC50) with Aspergillus fumigatus [9] came to 0.002 µg/mL.

In the case of `CCCCCOc1ccc(-c2cc(-c3ccc(C(=O)N[C@H]4C[C@@H](O)[C@@H](O)NC(=O)[C@@H]5[C@@H](O)[C@@H](C)CN5C(=O)[C@H]([C@H](O)CC(N)=O)NC(=O)[C@H]([C@H](O)[C@@H](O)c5ccc(O)c(OS(=O)(=O)O)c5)NC(=O)[C@@H]5C[C@@H](O)CN5C(=O)[C@H]([C@@H](C)O)NC4=O)cc3)no2)cc1` (X2-[Orn(4R-OH,5R-OH)]T[Hyp][hTyr(3S-OH,4S-OH,3'-OSO3H)][Gln(3R-OH)][Pro(3S-OH,4S-Me)]; lactam 1-C), the hemolysis at 1 mg/ml in series [6] is less than 20%.

Take `CCCCCOc1ccc(-c2cc(-c3ccc(C(=O)N[C@H]4C[C@@H](O)[C@@H](O)NC(=O)[C@@H]5[C@@H](O)[C@@H](C)CN5C(=O)[C@H]([C@H](O)CC(N)=O)NC(=O)[C@H]([C@H](O)[C@@H](O)c5ccc(O)c(OS(=O)(=O)[O-])c5)NC(=O)[C@@H]5C[C@@H](O)CN5C(=O)C([C@@H](C)O)NC4=O)cc3)no2)cc1.[Na+]` (stereo partly drawn) (X2-[Orn(4R-OH,5R-OH)][ξThr(3R)][Hyp][hTyr(3S-OH,4S-OH,3'-OSO3H)][Gln(3R-OH)][Pro(3S-OH,4S-Me)]; lactam 1-C): the concentration at 0.5 h in [1] came to 10100 ng/mL. Besides, the figures for the MIC with Aspergillus fumigatus [2], against Candida albicans [3] and against Candida albicans [5] were 1.56 µg/mL, 1.56 µg/mL and 0.05 µg/mL, respectively. In series [4], this compound gave a half-life of 5.1 h. This compound came in with an AUC(0-inf) in series [7] of 78 µg·h/mL. Further, the ED50 in the series with Aspergillus fumigatus [8] was 0.228 mg/kg; with Candida albicans [10], 0.325 mg/kg. The same compound yielded an IC50 with Aspergillus fumigatus [9] of 0.002 µg/mL.

As to `CCCCOc1ccc(-c2ccc(-c3ccc(C(=O)N[C@H]4C[C@@H](O)[C@@H](O)NC(=O)[C@@H]5[C@@H](O)[C@@H](C)CN5C(=O)[C@H]([C@H](O)CC(N)=O)NC(=O)[C@H]([C@H](O)[C@@H](O)c5ccc(O)c(OS(=O)(=O)[O-])c5)NC(=O)[C@@H]5C[C@@H](O)CN5C(=O)[C@H]([C@@H](C)O)NC4=O)cc3)cc2)cc1.[Na+]` (X3-[Orn(4R-OH,5R-OH)]T[Hyp][hTyr(3S-OH,4S-OH,3'-OSO3H)][Gln(3R-OH)][Pro(3S-OH,4S-Me)]; lactam 1-C), the MIC is 1.56 µg/mL with Aspergillus fumigatus [2], 1.56 µg/mL against Candida albicans [3] and 0.025 µg/mL against Candida albicans [5]. The hemolysis at 1 mg/ml in [6] was determined as 79%. In the series on Aspergillus fumigatus [9], this compound came in with an IC50 of 0.002 µg/mL. This compound also registered an ED50 in the series with Candida albicans [10] of 0.447 mg/kg.

Regarding `CCCCCCOc1ccc(-c2nnc(-c3ccc(C(=O)N[C@H]4C[C@@H](O)[C@@H](O)NC(=O)[C@@H]5[C@@H](O)[C@@H](C)CN5C(=O)[C@H]([C@H](O)CC(N)=O)NC(=O)[C@H]([C@H](O)[C@@H](O)c5ccc(O)c(OS(=O)(=O)[O-])c5)NC(=O)[C@@H]5C[C@@H](O)CN5C(=O)C([C@@H](C)O)NC4=O)cc3)s2)cc1.[Na+]` (stereo partly drawn) (X4-[Orn(4R-OH,5R-OH)][ξThr(3R)][Hyp][hTyr(3S-OH,4S-OH,3'-OSO3H)][Gln(3R-OH)][Pro(3S-OH,4S-Me)]; lactam 1-C), the MIC against Aspergillus fumigatus [2] is 0.78 µg/mL; against Candida albicans [3], 0.78 µg/mL; in the series with Candida albicans [5], 0.05 µg/mL. Besides, the hemolysis at 1 mg/ml in [6] was 42%. This compound displayed an IC50 with Aspergillus fumigatus [9] of 0.002 µg/mL.

In the case of `CCCCCOc1ccc(-c2cc(-c3ccc(C(=O)N[C@H]4C[C@@H](O)[C@@H](O)NC(=O)[C@@H]5[C@@H](O)[C@@H](C)CN5C(=O)[C@H]([C@H](O)CC(N)=O)NC(=O)[C@H]([C@H](O)[C@@H](O)c5ccc(O)c(OS(=O)(=O)[O-])c5)NC(=O)[C@@H]5C[C@@H](O)CN5C(=O)C([C@@H](C)O)NC4=O)cc3)on2)cc1.[Na+]` (stereo partly drawn) (X5-[Orn(4R-OH,5R-OH)][ξThr(3R)][Hyp][hTyr(3S-OH,4S-OH,3'-OSO3H)][Gln(3R-OH)][Pro(3S-OH,4S-Me)]; lactam 1-C), the minimum inhibitory concentration (MIC) against Aspergillus fumigatus [2] came out at 0.78 µg/mL; against Candida albicans [3], 1.56 µg/mL; against Candida albicans [5], 0.05 µg/mL. In addition, the hemolysis at 1 mg/ml in series [6] came out at 38%. The IC50 in the series with Aspergillus fumigatus [9] turned out to be 0.001 µg/mL.

In the case of `CCCCCCCOc1ccc(N2CCN(c3ccc(C(=O)N[C@H]4C[C@@H](O)[C@@H](O)NC(=O)[C@@H]5[C@@H](O)[C@@H](C)CN5C(=O)[C@H]([C@H](O)CC(N)=O)NC(=O)[C@H]([C@H](O)[C@@H](O)c5ccc(O)c(OS(=O)(=O)[O-])c5)NC(=O)[C@@H]5C[C@@H](O)CN5C(=O)C([C@@H](C)O)NC4=O)cn3)CC2)cc1.[Na+]` (stereo partly drawn) (X6-[Orn(4R-OH,5R-OH)][ξThr(3R)][Hyp][hTyr(3S-OH,4S-OH,3'-OSO3H)][Gln(3R-OH)][Pro(3S-OH,4S-Me)]; lactam 1-C), the results for the MIC with Aspergillus fumigatus [2], against Candida albicans [3] and against Candida albicans [5] were 6.25 µg/mL, 3.13 µg/mL and 0.2 µg/mL, respectively. The hemolysis at 1 mg/ml in series [6] is less than 20%. The same compound displayed an IC50 in the series with Aspergillus fumigatus [9] of 0.005 µg/mL.

For `CCCCCCOc1ccc(C2CCN(c3ccc(C(=O)N[C@H]4C[C@@H](O)[C@@H](O)NC(=O)[C@@H]5[C@@H](O)[C@@H](C)CN5C(=O)[C@H]([C@H](O)CC(N)=O)NC(=O)[C@H]([C@H](O)[C@@H](O)c5ccc(O)c(OS(=O)(=O)[O-])c5)NC(=O)[C@@H]5C[C@@H](O)CN5C(=O)C([C@@H](C)O)NC4=O)cc3)CC2)cc1.[Na+]` (stereo partly drawn) (X7-[Orn(4R-OH,5R-OH)][ξThr(3R)][Hyp][hTyr(3S-OH,4S-OH,3'-OSO3H)][Gln(3R-OH)][Pro(3S-OH,4S-Me)]; lactam 1-C), the MIC against Aspergillus fumigatus [2] was 1.56 µg/mL; with Candida albicans [3], 1.56 µg/mL; in the series with Candida albicans [5] it was 0.05 µg/mL. Moreover, the hemolysis at 1 mg/ml in [6] worked out at 33%. Also, half-maximal inhibition in the series on Aspergillus fumigatus [9] (IC50) was put at 0.003 µg/mL.

As to `CCCCCOc1ccc(-c2nc(-c3ccc(C(=O)N[C@H]4C[C@@H](O)[C@@H](O)NC(=O)[C@@H]5[C@@H](O)[C@@H](C)CN5C(=O)[C@H]([C@H](O)CC(N)=O)NC(=O)[C@H]([C@H](O)[C@@H](O)c5ccc(O)c(OS(=O)(=O)[O-])c5)NC(=O)[C@@H]5C[C@@H](O)CN5C(=O)C([C@@H](C)O)NC4=O)cc3)cs2)cc1.[Na+]` (stereo partly drawn) (X8-[Orn(4R-OH,5R-OH)][ξThr(3R)][Hyp][hTyr(3S-OH,4S-OH,3'-OSO3H)][Gln(3R-OH)][Pro(3S-OH,4S-Me)]; lactam 1-C), the minimal inhibitory concentration (MIC) with Aspergillus fumigatus [2] was 3.13 µg/mL; in the series with Candida albicans [3] it was 6.25 µg/mL; against Candida albicans [5], 0.1 µg/mL. The hemolysis at 1 mg/ml in series [6] was less than 20%.

In turn, `CCCCCCCCOc1ccc(C(=O)N[C@H]2C[C@@H](O)[C@H](O)NC(=O)[C@@H]3[C@@H](O)[C@@H](C)CN3C(=O)[C@H]([C@H](O)CC(N)=O)NC(=O)[C@H]([C@H](O)[C@@H](O)c3ccc(O)c(OS(=O)(=O)[O-])c3)NC(=O)[C@@H]3C[C@@H](O)CN3C(=O)[C@H]([C@@H](C)O)NC2=O)cc1.[Na+]` [FR-131535] ({Benzoyl(4-octyloxy)}-[Orn(4R-OH,5S-OH)]T[Hyp][hTyr(3S-OH,4S-OH,3'-OSO3H)][Gln(3R-OH)][Pro(3S-OH,4S-Me)]; lactam 1-C) displayed a concentration at 0.5 h in series [1] of 30300 ng/mL. Besides, the MIC in the series on Aspergillus fumigatus [2] came out at 12.5 µg/mL; in the series with Candida albicans [3], 25 µg/mL. The same compound showed a half-life in series [4] of 2 h. For the same compound, in [7], the AUC(0-inf) was 109 µg·h/mL.
